Molecular target: T1, SIRT1 (Homo sapiens, UniProt Q96EB6)
T1 sequence (Q96EB6 1-747): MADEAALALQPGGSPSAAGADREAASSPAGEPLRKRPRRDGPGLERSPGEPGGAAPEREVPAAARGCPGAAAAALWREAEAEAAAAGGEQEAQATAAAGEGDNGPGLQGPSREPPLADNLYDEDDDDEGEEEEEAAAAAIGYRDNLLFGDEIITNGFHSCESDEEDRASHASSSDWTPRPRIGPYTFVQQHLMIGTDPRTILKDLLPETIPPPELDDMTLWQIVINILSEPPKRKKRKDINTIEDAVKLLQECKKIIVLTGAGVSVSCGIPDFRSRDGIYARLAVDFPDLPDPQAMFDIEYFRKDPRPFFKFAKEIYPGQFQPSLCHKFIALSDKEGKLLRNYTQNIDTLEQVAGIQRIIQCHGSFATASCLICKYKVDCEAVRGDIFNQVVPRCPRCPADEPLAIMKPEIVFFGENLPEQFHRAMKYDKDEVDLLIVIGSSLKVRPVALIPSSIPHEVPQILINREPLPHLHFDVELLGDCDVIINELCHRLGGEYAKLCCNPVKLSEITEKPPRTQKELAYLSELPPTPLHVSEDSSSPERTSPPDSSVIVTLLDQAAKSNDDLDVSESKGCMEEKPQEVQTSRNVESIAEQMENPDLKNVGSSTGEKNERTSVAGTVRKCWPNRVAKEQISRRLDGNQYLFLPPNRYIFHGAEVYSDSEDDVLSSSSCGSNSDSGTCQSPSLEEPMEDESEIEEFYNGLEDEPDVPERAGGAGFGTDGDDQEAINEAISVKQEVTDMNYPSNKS
Experiment: Trp mass spectrometry assay (SIRT1 activation)
Format: biochemical
Conditions: Trp peptide substrate; for Tryp AVG EC1.5 (μM): concentration of test compound that results in 150% activation of SIRT1; for Emax: percent maximum fold activation of SIRT1, read-out: Tryp % Fold Act
Procedure, shortened: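 N-His-tagged SIRT1 (10 nM), expressed in E. coli, was incubated with 0.5 μM Ac-RHKK(Ac)W-NH2 peptide and 120 μM NAD+ for 25 min at 25 °C in HEPES pH 7.5 with […]. The reaction was stopped with formic acid and O-acetyl-ADP-ribose or deacetylated peptide was quantified by mass spectrometry. Results are given as EC1.5 and percent maximal activation relative to DMSO control.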

SMILES: CN1CCCN(c2ccc3c(n2)N(C(=O)Nc2ccncn2)[C@H]2CCCN3C2)CC1 [Example 484]
- Tryp AVG EC1.5 (μM): C (EC1.5>25 μM)
- Emax: < 150%

SMILES: O=C(Nc1cccnc1)N1c2nc(-c3cccc(C(F)(F)F)c3)ccc2N2CCC1CC2 [Example 485]
- Tryp AVG EC1.5 (μM): A (EC1.5<1 μM)
- Emax: ≥ 150%

SMILES: Cc1nn(C)c(C)c1-c1ccc2c(n1)N(C(=O)Nc1cccnc1)[C@H]1CCN2C1 [Example 486]
- Tryp AVG EC1.5 (μM): C (EC1.5>25 μM)
- Emax: ≥ 150%

SMILES: CCCn1cc(-c2ccc3c(n2)N(C(=O)Nc2cccnc2)[C@H]2CCN3C2)cn1 [Example 487]
- Tryp AVG EC1.5 (μM): B (EC1.5 1-25 μM)
- Emax: ≥ 150%

SMILES: Cc1nn(C)cc1-c1ccc2c(n1)N(C(=O)Nc1cccnc1)[C@H]1CCN2C1 [Example 488]
- Tryp AVG EC1.5 (μM): B (EC1.5 1-25 μM)
- Emax: ≥ 150%

SMILES: Cc1c(-c2ccc3c(n2)N(C(=O)Nc2cccnc2)[C@H]2CCN3C2)cnn1C [Example 489]
- Tryp AVG EC1.5 (μM): B (EC1.5 1-25 μM)
- Emax: ≥ 150%

SMILES: Cc1[nH]ncc1-c1ccc2c(n1)N(C(=O)Nc1cccnc1)[C@H]1CCN2C1 [Example 490]
- Tryp AVG EC1.5 (μM): B (EC1.5 1-25 μM)
- Emax: ≥ 150%

SMILES: O=C(Nc1ccncn1)N1c2nc(N3CCCN(CC(F)(F)F)CC3)ccc2N2CCC[C@H]1C2 [Example 491]
- Tryp AVG EC1.5 (μM): A (EC1.5<1 μM)
- Emax: ≥ 150%

SMILES: O=C(Nc1cncc(F)c1)N1c2nc(-c3cccc(C(F)(F)F)c3)ccc2N2CCC1CC2 [Example 492]
- Tryp AVG EC1.5 (μM): A (EC1.5<1 μM)
- Emax: ≥ 150%

SMILES: O=C(Nc1cccnc1)N1c2nc(-c3cc[nH]n3)ccc2N2CC[C@H]1C2 [Example 493]
- Tryp AVG EC1.5 (μM): B (EC1.5 1-25 μM)
- Emax: ≥ 150%

SMILES: CC(C)n1cc(-c2ccc3c(n2)N(C(=O)Nc2cccnc2)[C@H]2CCN3C2)cn1 [Example 494]
- Tryp AVG EC1.5 (μM): B (EC1.5 1-25 μM)
- Emax: ≥ 150%

SMILES: Cc1nc(C)c(-c2ccc3c(n2)N(C(=O)Nc2cccnc2)[C@H]2CCN3C2)s1 [Example 495]
- Tryp AVG EC1.5 (μM): B (EC1.5 1-25 μM)
- Emax: ≥ 150%

SMILES: O=C(Nc1cccnc1)N1c2nc(-c3cccc(Cl)c3)ccc2N2CCC1CC2 [Example 496]
- Tryp AVG EC1.5 (μM): A (EC1.5<1 μM)
- Emax: ≥ 150%

SMILES: O=C(Nc1cccc(-c2cnco2)c1)N1c2nc(-c3cccc(Cl)c3)ccc2N2CCC1CC2 [Example 497]
- Tryp AVG EC1.5 (μM): A (EC1.5<1 μM)
- Emax: ≥ 150%

SMILES: Cc1cc(-c2ccc3c(n2)N(C(=O)Nc2cccnc2)[C@H]2CCN3C2)ccn1 [Example 498]
- Tryp AVG EC1.5 (μM): A (EC1.5<1 μM)
- Emax: ≥ 150%

SMILES: COc1cncc(NC(=O)N2c3nc(-c4ccnc(C)c4)ccc3N3CC[C@H]2C3)n1 [Example 499]
- Tryp AVG EC1.5 (μM): A (EC1.5<1 μM)
- Emax: ≥ 150%

SMILES: COc1cnc(NC(=O)N2c3nc(-c4ccnc(C)c4)ccc3N3CC[C@H]2C3)cn1 [Example 500]
- Tryp AVG EC1.5 (μM): A (EC1.5<1 μM)
- Emax: ≥ 150%

SMILES: COc1nccnc1NC(=O)N1c2nc(-c3ccnc(C)c3)ccc2N2CC[C@H]1C2 [Example 501]
- Tryp AVG EC1.5 (μM): B (EC1.5 1-25 μM)
- Emax: ≥ 150%

SMILES: Cc1cc(-c2ccc3c(n2)N(C(=O)Nc2ccc4c(cnn4C)c2)[C@H]2CCN3C2)ccn1 [Example 502]
- Tryp AVG EC1.5 (μM): A (EC1.5<1 μM)
- Emax: ≥ 150%

SMILES: Cc1cc(-c2ccc3c(n2)N(C(=O)Nc2cncc(C)n2)[C@H]2CCN3C2)ccn1 [Example 503]
- Tryp AVG EC1.5 (μM): A (EC1.5<1 μM)
- Emax: ≥ 150%

SMILES: Cc1cncc(-c2ccc3c(n2)N(C(=O)Nc2ccccn2)[C@H]2CCCN3C2)c1 [Example 504]
- Tryp AVG EC1.5 (μM): A (EC1.5<1 μM)
- Emax: ≥ 150%

SMILES: Cc1ccncc1-c1ccc2c(n1)N(C(=O)Nc1ccccn1)[C@H]1CCCN2C1 [Example 505]
- Tryp AVG EC1.5 (μM): C (EC1.5>25 μM)
- Emax: < 150%

SMILES: Cc1ccc(-c2ccc3c(n2)N(C(=O)Nc2nc(C)c(C)s2)[C@H]2CCCN3C2)cn1 [Example 506]
- Tryp AVG EC1.5 (μM): A (EC1.5<1 μM)
- Emax: ≥ 150%

SMILES: Cc1cncc(-c2ccc3c(n2)N(C(=O)Nc2nc(C)c(C)s2)[C@H]2CCCN3C2)c1 [Example 507]
- Tryp AVG EC1.5 (μM): A (EC1.5<1 μM)
- Emax: ≥ 150%

SMILES: Cc1ccncc1-c1ccc2c(n1)N(C(=O)Nc1nc(C)c(C)s1)[C@H]1CCCN2C1 [Example 508]
- Tryp AVG EC1.5 (μM): C (EC1.5>25 μM)
- Emax: ≥ 150%

SMILES: Cc1cncc(-c2ccc3c(n2)N(C(=O)Nc2cncc(F)c2)[C@H]2CCCN3C2)c1 [Example 509]
- Tryp AVG EC1.5 (μM): A (EC1.5<1 μM)
- Emax: ≥ 150%

SMILES: Cc1ccncc1-c1ccc2c(n1)N(C(=O)Nc1cncc(F)c1)[C@H]1CCCN2C1 [Example 510]
- Tryp AVG EC1.5 (μM): B (EC1.5 1-25 μM)
- Emax: ≥ 150%

SMILES: COc1cc(NC(=O)N2c3nc(-c4cnccc4C)ccc3N3CCC[C@H]2C3)ncn1 [Example 511]
- Tryp AVG EC1.5 (μM): C (EC1.5>25 μM)
- Emax: < 150%

SMILES: Cc1cncc(-c2ccc3c(n2)N(C(=O)Nc2cnccn2)[C@H]2CCCN3C2)c1 [Example 512]
- Tryp AVG EC1.5 (μM): B (EC1.5 1-25 μM)
- Emax: ≥ 150%

SMILES: Cc1ccncc1-c1ccc2c(n1)N(C(=O)Nc1cnccn1)[C@H]1CCCN2C1 [Example 513]
- Tryp AVG EC1.5 (μM): C (EC1.5>25 μM)
- Emax: ≥ 150%

SMILES: Cc1ccc(-c2ccc3c(n2)N(C(=O)Nc2cccnc2)[C@H]2CCCN3C2)cn1 [Example 514]
- Tryp AVG EC1.5 (μM): B (EC1.5 1-25 μM)
- Emax: ≥ 150%

SMILES: Cc1cncc(-c2ccc3c(n2)N(C(=O)Nc2cccnc2)[C@H]2CCCN3C2)c1 [Example 515]
- Tryp AVG EC1.5 (μM): A (EC1.5<1 μM)
- Emax: ≥ 150%

SMILES: Cc1ccncc1-c1ccc2c(n1)N(C(=O)Nc1cccnc1)[C@H]1CCCN2C1 [Example 516]
- Tryp AVG EC1.5 (μM): B (EC1.5 1-25 μM)
- Emax: ≥ 150%

SMILES: Cc1cncc(-c2ccc3c(n2)N(C(=O)Nc2ccncn2)[C@H]2CCCN3C2)c1 [Example 517]
- Tryp AVG EC1.5 (μM): A (EC1.5<1 μM)
- Emax: ≥ 150%

SMILES: Cc1ccncc1-c1ccc2c(n1)N(C(=O)Nc1ccncn1)[C@H]1CCCN2C1 [Example 518]
- Tryp AVG EC1.5 (μM): C (EC1.5>25 μM)
- Emax: < 150%

SMILES: Cc1cncc(-c2ccc3c(n2)N(C(=O)Nc2cccnn2)[C@H]2CCCN3C2)c1 [Example 519]
- Tryp AVG EC1.5 (μM): A (EC1.5<1 μM)
- Emax: ≥ 150%

SMILES: Cc1ccncc1-c1ccc2c(n1)N(C(=O)Nc1cccnn1)[C@H]1CCCN2C1 [Example 520]
- Tryp AVG EC1.5 (μM): C (EC1.5>25 μM)
- Emax: ≥ 150%

SMILES: O=C(Nc1cncc(F)c1)N1c2nc(-c3cccc(Cl)c3)ccc2N2CCC1CC2 [Example 521]
- Tryp AVG EC1.5 (μM): B (EC1.5 1-25 μM)
- Emax: ≥ 150%

SMILES: COc1cc(NC(=O)N2c3nc(-c4cccc(Cl)c4)ccc3N3CCC2CC3)ncn1 [Example 522]
- Tryp AVG EC1.5 (μM): B (EC1.5 1-25 μM)
- Emax: ≥ 150%

SMILES: COc1cc(NC(=O)N2c3nc(-c4cccc(Cl)c4)ccc3N3CCC2CC3)nc(OC)n1 [Example 523]
- Tryp AVG EC1.5 (μM): A (EC1.5<1 μM)
- Emax: ≥ 150%

SMILES: Cn1nccc1-c1ccc2c(n1)N(C(=O)Nc1cccnc1)[C@H]1CCN2C1 [Example 524]
- Tryp AVG EC1.5 (μM): B (EC1.5 1-25 μM)
- Emax: ≥ 150%

SMILES: Cc1n[nH]c(C)c1-c1ccc2c(n1)N(C(=O)Nc1cccnc1)[C@H]1CCN2C1 [Example 525]
- Tryp AVG EC1.5 (μM): B (EC1.5 1-25 μM)
- Emax: ≥ 150%

SMILES: O=C(Nc1cccnc1)N1c2nc(-c3cncc(Cl)c3)ccc2N2CC[C@H]1C2 [Example 526]
- Tryp AVG EC1.5 (μM): A (EC1.5<1 μM)
- Emax: ≥ 150%

SMILES: COc1cc(NC(=O)N2c3nc(-c4cccc(N5CCOCC5)c4)ccc3N3CCC[C@H]2C3)ncn1 [Example 528]
- Tryp AVG EC1.5 (μM): B (EC1.5 1-25 μM)
- Emax: ≥ 150%

SMILES: O=C(Nc1ccncn1)N1c2nc(-c3cccc(N4CCOCC4)c3)ccc2N2CCC[C@H]1C2 [Example 529]
- Tryp AVG EC1.5 (μM): B (EC1.5 1-25 μM)
- Emax: ≥ 150%

SMILES: O=C1C=CC2=C(c3ccc(NC(=S)NCc4ccc(NC(=O)N5c6nc(-c7cccc(C(F)(F)F)c7)ccc6N6CC[C@H]5C6)cc4)cc3C(=O)O)C3C=CC(O)=CC3OC2=C1 (stereo partly drawn) [Example 530]
- Tryp AVG EC1.5 (μM): A (EC1.5<1 μM)
- Emax: ≥ 150%

SMILES: Cc1c(-c2ccc3c(n2)N(C(=O)Nc2ccccn2)[C@H]2CCN3C2)cnn1C [Example 531]
- Tryp AVG EC1.5 (μM): B (EC1.5 1-25 μM)
- Emax: ≥ 150%

SMILES: Cc1c(-c2ccc3c(n2)N(C(=O)Nc2cnccn2)[C@H]2CCN3C2)cnn1C [Example 532]
- Tryp AVG EC1.5 (μM): B (EC1.5 1-25 μM)
- Emax: ≥ 150%

SMILES: O=C(Nc1ccccn1)N1c2nc(-c3cccc(Cl)c3)ccc2N2CCC1CC2 [Example 533]
- Tryp AVG EC1.5 (μM): B (EC1.5 1-25 μM)
- Emax: ≥ 150%

SMILES: O=C(Nc1ccncn1)N1c2nc(-c3cccc(Cl)c3)ccc2N2CCC1CC2 [Example 534]
- Tryp AVG EC1.5 (μM): B (EC1.5 1-25 μM)
- Emax: ≥ 150%

SMILES: N#Cc1cncc(-c2ccc3c(n2)N(C(=O)Nc2cncc(F)c2)[C@H]2CCCN3C2)c1 [Example 535]
- Tryp AVG EC1.5 (μM): B (EC1.5 1-25 μM)
- Emax: ≥ 150%
